Assay results from patent US20260068884A1, “COMPOSITION USED FOR KILLING FUNGI AND METHOD FOR APPLYING COMPOSITION” (JIANGSU FLAG CHEMICAL INDUSTRY CO., LTD., priority 2022, published 2026).
In brackets after ≈: the same amount, converted by molar mass. Where two headings read alike, the source gives them in different places.

Assays:
[1] = test system: cucumber powdery mildew; assay: field efficacy test for cucumber powdery mildew; assay type: in vivo; details: spray
Method: Field efficacy test for preventing and treating cucumber powdery mildew.
The test object is cucumber powdery mildew. The test is carried out on Xiaoying village of Liuhe district of Nanjing city, Jiangsu Province, China, the field trend of the test is flat, the soil is loam, the fertility is medium, the pH value is 6.8, and the management of rich water during the test is medium. And setting blank contrast, repeating the treatment for 3 times, wherein each cell has 30 square meters and is arranged in random block groups. The water consumption per acre is 40 L by adopting a conventional spraying method, and the water is uniformly sprayed on the front and back surfaces of the leaves.
The investigation and statistical method comprises the steps of investigating the base of illness state before application of the medicament, and investigating once again 10-14 days after the last application of the medicament, wherein 2 times of investigation are total. Four points are randomly taken from each cell, 2 plants are investigated from each point, all leaves are investigated from each plant, and each leaf is graded and recorded according to the percentage of lesion spots to the leaf area. The grading method comprises the following steps: • stage 0: no lesion spots; • stage 1: the lesion area accounts for less than 5% of the whole leaf area; • stage 3: the ratio of the lesion spot area to the whole leaf area is more than 6% to less than 10%; • stage 5: the ratio of the lesion spot area to the whole leaf area is more than 11% to less than 25%; • stage 7: the ratio of the lesion spot area to the whole leaf area is more than 26% to less than 50%; • stage 9: the ratio of the lesion spot area to the whole leaf area is more than 50%;
When the fungicidal activity of the active compound combination exceeds the sum of the activities of the active compounds when applied individually, then there is always a synergistic effect of the fungicides. The expected activity of a given combination of two active compounds can be calculated (according to the Colby formula) as follows (refer to S. R. Colby, “Calculation of the synergistic andantagonistic responses of herbicide combinations”, Weeds 1967, 15, pages 20-22):
[formula] • X is the efficacy of component A when applied at an application rate of m g a.i./ha, • Y is the efficacy of component B when applied at an application rate of n g a.i./ha, • Cexp is the expected efficacy when the active compound A is administered at an application rate of m g a.i./ha and the active compound B is administered at an application rate of n g a.i./ha, respectively, • the degree of efficacy is expressed as %: 0% means the efficacy corresponding to the control group, while 100% efficacy means no disease observed. • C-Cobs/Cexp, C>1 indicates synergy and antagonism if C<1.

[2] = test system: rape sclerotinia sclerotiorum; assay: plate method, inhibition of hypha growth (in-vessel bioassay); assay type: cell-based; details: for EC50: Sclerotinia sclerotiorum
[3] = test system: wheat scab germ (Fusarium graminearum); assay: microbe, parasite or virus in culture; assay type: cell-based; details: for Measured Toxicity Index of Mixture (ATI): standard fungicide = component A
[4] = test system: wheat rust (Puccinia striiformis f. sp. tritici); assay: pot culture method, protective control of wheat rust; assay type: in vivo; details: for Measured Toxicity Index of Mixture (ATI): standard fungicide = component A; for EC50: Puccinia striiformis
[5] = test system: Blumeria graminis; assay: pot culture method, protective control of wheat powdery mildew; assay type: in vivo; details: for Measured Toxicity Index of Mixture (ATI): standard fungicide = component A; for EC50: Blumeria graminis, control efficacy, potted wheat, sprayed 24 h before inoculation, 7 days after inoculation
[6] = single component B, g a.i./ha: azoxystrobin 72, fludioxonil 50, pyraclostrobin 160, difenoconazole 100
[7] = hypha growth inhibition, plate method, wheat fusarium graminearum

Compound	EC50 [2] [µg/mL]	Measured Toxicity Index of Mixture (ATI) [3]	Measured Toxicity Index of Mixture (ATI) [4]	Measured Toxicity Index of Mixture (ATI) [5]	EC50 ([3]; Fusarium graminearum) [µg/mL]	EC50 [4] [µg/mL]	EC50 [5] [µg/mL]	other results
CO/C=C(/C(=O)OC)c1ccccc1Oc1cc(Oc2ccccc2C#N)ncn1 [azoxystrobin]								Cobs Actual control Effect [1, 6]: 50.28%
N#Cc1c(Cl)c(Cl)c(Cl)c(C#N)c1Cl [chlorothalonil]	0.82 (≈ 3.08 µM)							Measured Toxicity Index of Mixture (ATI) [2]: 1.22
CC(C1CC1)C(O)(Cn1cncn1)c1ccc(Cl)cc1 (stereo not drawn) [ciproconazole]		0.50	233.08	94.12				EC50 [3, 7]: 2 µg/mL (≈ 6.85 µM)
C=C(CN(C(=O)c1c(C(F)F)nn(C)c1F)C1CC1)c1ccc(Cl)cc1Cl [component A]	0.01 (≈ 0.0239 µM)	100.00	100.00	100.00	0.01 (≈ 0.0239 µM)	29 (≈ 69.3 µM)	16 (≈ 38.3 µM)	Measured Toxicity Index of Mixture (ATI) ([2]; standard fungicide = component A): 100; Cobs Actual control Effect ([1]; 40 g a.i./ha): 37.60%; Cobs Actual control Effect ([1]; 60 g a.i./ha): 46.88%; Cobs Actual control Effect ([1]; 104 g a.i./ha): 54.68%; Cobs Actual control Effect ([1]; 150 g a.i./ha): 67.74%
CC1COC(Cn2cncn2)(c2ccc(Oc3ccc(Cl)cc3)cc2Cl)O1 (stereo not drawn) [difenoconazole]								Cobs Actual control Effect [1, 6]: 67.85%
N#Cc1c[nH]cc1-c1cccc2c1OC(F)(F)O2 [fludioxonil]	0.015 (≈ 0.0604 µM)							Measured Toxicity Index of Mixture (ATI) [2]: 66.67; Cobs Actual control Effect [1, 6]: 47.70%
CC1(C)CCC(Cc2ccc(Cl)cc2)C1(O)Cn1cncn1 (stereo not drawn) [metconazole]		33.33			0.03 (≈ 0.0938 µM)			
CCOC(=O)C(C#N)=C(N)c1ccccc1 [phenamacril]		2.50						EC50 [3, 7]: 0.4 µg/mL (≈ 1.85 µM)
CCCN(CCOc1c(Cl)cc(Cl)cc1Cl)C(=O)n1ccnc1 [prochloraz]	0.08 (≈ 0.212 µM)	50.00			0.02 (≈ 0.0531 µM)			Measured Toxicity Index of Mixture (ATI) [2]: 12.5
CCCC1COC(Cn2cncn2)(c2ccc(Cl)cc2Cl)O1 (stereo not drawn) [propiconazole]			193.33	145.45		15 (≈ 43.8 µM)	11 (≈ 32.1 µM)	
OC(Cc1ccccc1Cl)(Cn1nc[nH]c1=S)C1(Cl)CC1 (stereo not drawn) [prothioconazole]		0.25	322.22	114.29	4 (≈ 11.6 µM)	9 (≈ 26.1 µM)	14 (≈ 40.7 µM)	
COC(=O)N(OC)c1ccccc1COc1ccn(-c2ccc(Cl)cc2)n1 [pyraclostrobin]		0.50	241.67	133.33	2 (≈ 5.16 µM)	12 (≈ 30.9 µM)	12 (≈ 30.9 µM)	Cobs Actual control Effect [1, 6]: 72.87%
CC(C)(C)C(O)(CCc1ccc(Cl)cc1)Cn1cncn1 (stereo not drawn) [tebuconazole]	0.1 (≈ 0.325 µM)	16.67	181.25	123.08	0.06 (≈ 0.195 µM)	16 (≈ 52 µM)	13 (≈ 42.2 µM)	Measured Toxicity Index of Mixture (ATI) [2]: 10.00
OCC1=C[C@H](N[C@H]2C[C@H](CO)[C@@H](O[C@@H]3O[C@H](CO)[C@@H](O)[C@H](O)[C@H]3O)[C@H](O)[C@H]2O)[C@H](O)[C@@H](O)[C@@H]1O [validamycin]		0.08			13 (≈ 26.1 µM)			
fluazolidinamide			116.00	80.00				
